For one assay, the target named is T1, IL-6R (Homo sapiens, UniProt P08887).
T1 construct: purchased PeproTech, Thermo Fisher Scientific
Put plainly: ELISA assay IL-6R. The note with it: 500 pg/mL IL-6R. Format: binding. Here is the method: (§1) Human ELISA kits for IL-6, IL-6R, and IL-8 (Sigma-Aldrich, Merck, Germany) were used to quantify cytokine levels after treatment with complex 3 or 4. Briefly, 96-well plates precoated with specific antibodies were used to capture IL-6, IL-6R, and IL-8 from samples. […] Each sample was supplemented with 500 pg/mL of IL-6/IL-6R/IL-8. Positive control wells contained only the IL-6/IL-6R/IL-8 standard (PeproTech, Thermo Fisher Scientific, Waltham, Massachusetts, USA). […] After incubation, wells were washed, and biotinylated antihuman antibodies were added, followed by washing and addition of HRP-conjugated streptavidin. Finally, the TMB substrate was added to develop a color proportional to the cytokine concentration, and the reaction was stopped with the stop solution. Absorbance was measured at 450 nm using an […] 200 PRO microplate reader (TECAN, Switzerland).

Another assay addresses T2, IL-6 (Homo sapiens, UniProt P05231).
T2 construct: purchased PeproTech, Thermo Fisher Scientific
Put plainly: Sandwich ELISA assay IL-6. The settings on record: 15 μM, 500 pg/mL IL-6. Format: binding. On the procedure:
as §1

The subject of a further assay is HGF. Put plainly: Colony formation assay. Format: cell-based, human. The note with it: 24 h treatment at IC50. On the procedure:
(§2) Cells were seeded in six-well plates at a density of 100,000 cells per well (10,000 cells/200 μL) and grown for 24 h. […] Subsequently, cells were reseeded in new six-well plates at a density of 500 cells per well and grown for approximately 2 weeks. The cell culture medium was replaced every 2–3 days. When visible colonies appeared in the six-well plates, the culture was terminated, and the cells were washed twice with ice-cold PBS. The cells were then fixed with ice-cold methanol for 10 min and stained with 0.5% crystal violet solution for 30 min at room temperature. Experiments were performed in four independent replicates. The results were analyzed using the ImageJ plugin ColonyArea, which is optimized for standard analysis of colony formation assays. The plugin processes each well individually and determines not the number of colonies, but the area of the well covered by cells, also considering staining intensity.

The test system of another assay is TR146. Put plainly: Colony formation assay. Format: cell-based, human. The note with it: TR146, 24 h treatment at IC50. On the procedure:
as §2

In another assay the test system is FaDu. The assay is described as follows: Colony formation assay. The note with it: 24 h treatment at IC50. Format: cell-based, human. Here is the method: as §2
Another assay relates to Detroit 562. Put plainly: Colony formation assay. The class given is cell-based, human. The settings on record: Detroit 562, 24 h treatment at IC50. On the procedure:
as §2

The next assay concerns CAL 27. The assay is described as follows: Colony formation assay. Format: cell-based, human. The settings on record: CAL 27, 24 h treatment at IC50. Here is the method:
as §2

A further assay concerns the target T3, NF-κB p65 (Homo sapiens, UniProt Q04206).
T3 construct: endogenous in cells; host or cells: THP1-Blue NF-κB cells
The assay is described as follows: Intracellular p65-NF-κB ELISA (DNA-binding activity). The class given is cell-based. An excerpt: To determine NF-κB p65 transcription factor levels by enzyme-linked immunosorbent assay (ELISA), an assay kit was used (Abcam, ab133112, Cambridge, UK). […] The supernatants were collected and used for the determination of intracellular p65-NF-κB by ELISA.
In this assay, a specific double-stranded DNA (dsDNA) sequence containing the NF-κB p65 response element is immobilized onto the wells of a 96-well plate. NF-κB p65 present in the sample binds specifically to these response elements. Bound p65 is subsequently detected using a primary antibody specific for NF-κB p65, followed by a horseradish peroxidase (HRP)-conjugated secondary antibody. The relevant background values were subtracted from the measured values. Absorbance was measured at 450 nm using an […] 200 PRO microplate reader (Tecan, Switzerland).

SMILES strings stand for the structures.

From article PMC12754617, “Ruthenium-enhanced curcumin derivatives target tumor growth and cancer-related inflammation in head and neck cancer models” (Frontiers in Oncology, 2025) come the findings set out here.

T3 sequence (Q04206 whole entry): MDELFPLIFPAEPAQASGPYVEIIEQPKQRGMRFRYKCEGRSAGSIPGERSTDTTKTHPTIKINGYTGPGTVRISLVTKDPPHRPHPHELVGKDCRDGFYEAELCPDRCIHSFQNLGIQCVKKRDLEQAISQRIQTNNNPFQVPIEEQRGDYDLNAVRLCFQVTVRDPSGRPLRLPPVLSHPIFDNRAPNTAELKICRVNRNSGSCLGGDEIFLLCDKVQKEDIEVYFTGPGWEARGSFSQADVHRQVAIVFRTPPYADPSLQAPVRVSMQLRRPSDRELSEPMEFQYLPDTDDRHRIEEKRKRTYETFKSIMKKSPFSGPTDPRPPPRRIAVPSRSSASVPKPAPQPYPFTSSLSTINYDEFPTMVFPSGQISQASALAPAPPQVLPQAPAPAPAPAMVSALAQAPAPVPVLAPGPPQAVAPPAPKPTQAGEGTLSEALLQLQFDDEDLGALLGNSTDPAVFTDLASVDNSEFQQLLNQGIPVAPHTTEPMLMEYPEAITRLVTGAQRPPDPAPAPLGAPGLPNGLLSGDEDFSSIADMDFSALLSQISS
T1 sequence (P08887 20-468): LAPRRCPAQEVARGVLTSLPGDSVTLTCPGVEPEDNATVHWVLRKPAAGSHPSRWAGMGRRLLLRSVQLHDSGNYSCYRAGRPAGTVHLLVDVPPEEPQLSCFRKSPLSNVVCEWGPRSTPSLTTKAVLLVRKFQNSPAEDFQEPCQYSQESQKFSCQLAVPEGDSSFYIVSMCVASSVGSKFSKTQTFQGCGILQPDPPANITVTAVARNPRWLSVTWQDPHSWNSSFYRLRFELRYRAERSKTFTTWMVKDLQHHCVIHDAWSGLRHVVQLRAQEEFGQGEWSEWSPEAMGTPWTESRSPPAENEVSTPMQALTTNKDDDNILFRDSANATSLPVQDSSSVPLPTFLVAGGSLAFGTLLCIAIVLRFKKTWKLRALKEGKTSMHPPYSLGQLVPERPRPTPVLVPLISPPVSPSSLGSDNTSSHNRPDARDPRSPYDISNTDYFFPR
T2 sequence (P05231 30-212): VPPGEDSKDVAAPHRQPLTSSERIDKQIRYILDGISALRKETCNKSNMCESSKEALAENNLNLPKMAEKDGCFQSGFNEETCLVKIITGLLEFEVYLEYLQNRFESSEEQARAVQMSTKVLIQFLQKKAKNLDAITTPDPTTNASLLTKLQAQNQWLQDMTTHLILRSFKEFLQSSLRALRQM

For `Cc1ccc(C(C)C)cc1.Cc1ccc(C(C)C)cc1.O=C1C(=Cc2cccnc2)CCC1=Cc1cccnc1.[Cl][Ru][Cl].[Cl][Ru][Cl]` [Complex 4], the “Decrease in IL-6R concentration” value on IL-6R (15 μM) is “about 15%”. Also, on IL-6, the “Decrease of IL-6 concentration” value is “approximately 30%”.

Consider `Cc1ccc(C(C)C)cc1.Cc1ccc(C(C)C)cc1.O=C1C(=Cc2ccnc3ccccc23)COCC1=Cc1ccnc2ccccc12.[Cl][Ru][Cl].[Cl][Ru][Cl]` [Complex 3], for which the “Decrease in IL-6R concentration” value at IL-6R (8 μM) was “about 15%”. Moreover, the “Cloning efficiency (%)” value in the assay with HGF was found to be 95 ± 6%; in the assay with TR146 it was 66 ± 19%; with FaDu, 73 ± 15%; with Detroit 562, 57 ± 8%; in the assay with CAL 27 it was 39 ± 7%. The “Reduction of NF-κB (p65) levels” value at NF-κB p65 (1 μM, cellular extracts of THP1-Blue NF-κB cells, LPS) was “approximately 70%”. For the same compound, at NF-κB p65 (8 μM), the “NF-κB (p65) detected in cellular extracts” value is given as “less than 5%”.
